Test results published in patent US11466019B2, “Triazolo[4,5-d] pyramidine derivatives and their use as purine receptor antagonists” (Vernalis (R&D) Limited, priority 2008, dated 2022).

Key:
[1] = tested on: haloperidol-induced deficits in locomotor activity in mice; assay: Haloperidol-induced hypolocomotion model (HaloLMA); assay type: in vivo; conditions: female TO mice, intraperitoneal, haloperidol 0.2 mg/kg
Excerpt: Evaluation of Potential Anti-Parkinsonian Activity In Vivo: Haloperidol-Induced Hypolocomotion Model
This approach is also considered a valid method for screening drugs with potential antiparkinsonian effects. Thus, the ability of novel adenosine antagonists to block haloperidol-induced deficits in locomotor activity in mice can be used to assess both in vivo and potential antiparkinsonian efficacy.
Female TO mice (25-30 g) are used for all experiments. Animals are housed in groups of 8 (cage size-40 cm (width) by 40 cm (length) by 20 cm (height)) under 12 hour light/dark cycle (lights on 08:00), in a temperature (20±2° C.) and humidity (55±15%) controlled environment. Animals have free access to food and water, and are allowed at least 7 days to acclimatize after delivery before experimental use.
Liquid injectable haloperidol (e.g., 1 mL Serenance ampoules from Baker Norton, Harlow, Essex, each containing haloperidol BP 5 mg) are diluted to a final concentration of 0.02 mg/mL using saline. Test compounds are typically prepared as aqueous suspensions in 8% Tween. All compounds are administered intraperitoneally in a volume of 10 mL/kg.
1.5 hours before testing, mice are administered 0.2 mg/kg haloperidol, a dose that reduces baseline locomotor activity by at least 50%. Test substances are typically administered 5-60 minutes prior to testing. The animals are then placed individually into clean, clear polycarbonate cages (20 cm (width) by 40 cm (length) by 20 cm (height), with a flat perforated, Perspex lid). Horizontal locomotor activity is determined by placing the cages within a frame containing a 3 by 6 array of photocells linked to a computer, which tabulates beam breaks. Mice are left undisturbed to explore for 1 hour, and the number of beams breaks made during this period serves as a record of locomotor activity which is compared with data for control animals for statistically significant differences.
A number of the exemplified compounds of the present invention were tested in this assay and the results obtained are shown in Table 3, below.

hA2B receptors = target: T1, hA2B receptors (Homo sapiens, UniProt P29275); assay: Adenosine receptor binding: binding affinities at hA2B receptors ([3H]-ZM241385 displacement); conditions: Table 1; for Ki: [3H]-ZM241385 displacement, HEK-293 membranes, read-out: Binding Affinity hA2B-Ki; for Binding Selectivity A2b/A2a: ratio of Ki values
T1 construct: host or cells: HEK-293
T1 sequence (P29275 1-332): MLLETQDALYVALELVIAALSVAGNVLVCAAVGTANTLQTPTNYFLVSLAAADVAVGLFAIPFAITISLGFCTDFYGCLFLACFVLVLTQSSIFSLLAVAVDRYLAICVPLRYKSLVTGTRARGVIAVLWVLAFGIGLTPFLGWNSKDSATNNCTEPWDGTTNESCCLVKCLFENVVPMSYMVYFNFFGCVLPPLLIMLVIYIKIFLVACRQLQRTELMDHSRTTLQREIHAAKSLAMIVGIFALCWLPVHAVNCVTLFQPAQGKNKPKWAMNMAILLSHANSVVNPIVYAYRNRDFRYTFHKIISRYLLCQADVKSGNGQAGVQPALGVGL

[2] = target: T2, human adenosine A3 receptors (Homo sapiens, UniProt P0DMS8); assay: Adenosine receptor binding: binding affinities at hA3 receptors ([125I]-AB MECA displacement); conditions: Table 1; for Ki: [125I]-AB MECA displacement, CHO-K1 membranes, read-out: Binding Affinity hA3-Ki; for Binding Selectivity A3/A2a: ratio of Ki values
T2 construct: expressed in transfected cells; host or cells: CHO-K1
T2 sequence (P0DMS8 1-318): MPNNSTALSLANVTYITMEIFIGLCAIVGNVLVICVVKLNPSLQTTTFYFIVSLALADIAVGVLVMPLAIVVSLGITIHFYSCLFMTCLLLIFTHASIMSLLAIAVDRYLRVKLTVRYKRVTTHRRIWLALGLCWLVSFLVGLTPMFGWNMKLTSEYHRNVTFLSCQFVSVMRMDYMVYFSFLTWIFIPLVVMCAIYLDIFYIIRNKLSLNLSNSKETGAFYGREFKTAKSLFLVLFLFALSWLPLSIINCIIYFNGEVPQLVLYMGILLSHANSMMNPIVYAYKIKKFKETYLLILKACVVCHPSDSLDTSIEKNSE
Protocol: [formula] Adenosine Receptor Binding: Binding Affinities at hA3 Receptors
The resultant homogenate was kept for immediate use in the binding assay.
(§1) Total binding was determined using drug dilution buffer (50 mM Tris-HCl pH 7.5, 10 mM MgCl2, 5% DMSO). Non-specific binding was determined using 10 μM IB-MECA. […] Filters were left to dry overnight, and Microscint-0 scintillation fluid was then added to the filters. The filters were then left for at least 2 hours before the radioactivity was assessed using a Canberra Packard TopCount microplate scintillation counter.
(§2) Data was analysed using a 4 parameter logistical equation and non-linear regression which yields affinity constants (pIC50), and slope parameters:
(§3) [formula] where E is the quantity of binding and [A] is the competitor concentration. The Ki is then determined using the Cheng-Prusoff equation: […]

[3] = target: T3, human adenosine A1 receptors (Homo sapiens, UniProt P30542); assay: Adenosine receptor binding: binding affinities at hA1 receptors ([3H]DPCPX displacement); conditions: Table 1; for Ki: [3H]DPCPX displacement, CHO-K1 membranes, read-out: Binding Affinity hA1-Ki; for Binding Selectivity A1/A2a: ratio of Ki values
T3 construct: expressed in transfected cells; host or cells: CHO-K1
T3 sequence (P30542 1-326): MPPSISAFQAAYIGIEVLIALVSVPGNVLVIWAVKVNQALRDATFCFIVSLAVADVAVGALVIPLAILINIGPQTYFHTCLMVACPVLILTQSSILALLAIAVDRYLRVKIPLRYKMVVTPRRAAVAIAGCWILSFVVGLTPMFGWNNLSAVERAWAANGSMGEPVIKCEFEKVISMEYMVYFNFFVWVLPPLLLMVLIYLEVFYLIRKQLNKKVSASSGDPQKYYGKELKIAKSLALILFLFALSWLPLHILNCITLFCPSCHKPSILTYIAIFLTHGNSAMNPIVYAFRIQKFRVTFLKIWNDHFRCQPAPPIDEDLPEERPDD
Protocol: Adenosine Receptor Binding: Binding Affinities at hA1 Receptors
The resultant homogenate was kept for immediate use in the binding.
as §1, with “Binding assays were performed in a total volume of 250 μL, containing [^3H]-DPCPX (3.0 nM), membranes and additional drugs. Total” for “Total”, “Tris-HCl pH:7.5,” for “Tris-HCl pH 7.5,”, “using 300” for “using 10”, “μM N6-cyclohexyladenosine (CHA).” for “μM IB-MECA.”
To determine the free ligand concentration, three vials were counted with 25 μL of [^3H]DPCPX containing 4 mL of Ultima-Gold MV scintillant on a Beckman LS6500 multi-purpose scintillation counter.
as §2, §3

[4] = target: T4, human adenosine A2A receptors (Homo sapiens, UniProt P29274); assay: Adenosine receptor binding: binding affinities at hA2A receptors ([3H]CGS-21680 displacement); conditions: Table 1; [3H]CGS-21680 displacement, HEK-293 membranes; read-out: Binding Affinity hA2A-Ki
T4 construct: host or cells: HEK-293
T4 sequence (P29274 whole entry): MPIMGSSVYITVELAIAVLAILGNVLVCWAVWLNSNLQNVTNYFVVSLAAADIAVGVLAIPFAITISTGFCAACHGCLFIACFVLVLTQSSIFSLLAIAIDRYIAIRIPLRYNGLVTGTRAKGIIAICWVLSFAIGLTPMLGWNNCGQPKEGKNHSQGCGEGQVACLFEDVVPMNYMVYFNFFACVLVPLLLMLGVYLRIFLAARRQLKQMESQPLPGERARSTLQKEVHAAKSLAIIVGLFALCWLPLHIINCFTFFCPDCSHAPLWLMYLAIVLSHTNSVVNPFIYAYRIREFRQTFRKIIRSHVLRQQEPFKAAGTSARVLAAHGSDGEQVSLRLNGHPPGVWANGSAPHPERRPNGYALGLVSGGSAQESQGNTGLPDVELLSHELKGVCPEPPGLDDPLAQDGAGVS
Protocol: Adenosine Receptor Binding: Binding Affinities at hA2A Receptors
as §1, with “The resultant homogenate was kept for immediate use in the binding assay. Binding assays were performed in a total volume of 250 μL, containing [^3H]-CGS21680 (20.0 nM), membranes and additional drugs. Total” for “Total”, “using 300” for “using 10”, “μM CHA.” for “μM IB-MECA.”
To determine the free ligand concentration, three vials were counted with 25 μL of [^3H]CGS21680 containing 4 mL of Ultima-Gold MV scintillant on a Beckman LS6500 multi-purpose scintillation counter.
as §2, §3

Ki (hA2B receptors) | Binding Selectivity A2b/A2a (hA2B receptors) | Ki [2] | Binding Selectivity A3/A2a [2] | Ki [3] | Binding Selectivity A1/A2a [3] | Ki [4] | SMILES | In Vivo activity HaloLMA MED [1]
976 nM | 602 | 754 nM | 465 | 366 nM | 226 | 1.6 nM | Cc1ccc(-c2nc(N)nc3c2nnn3Cc2cccc(C3(O)CCCC3)n2)o1 [Example 3, 7-(5-methylfuran-2-yl)-3-(6-[1-hydroxy-1-cyclopentyl]pyrid-2-ylmethyl)-3H-[1,2,3]triazolo[4,5-d]pyrimidin-5-amine] | 1 mg/kg
2020 nM | 442 | 2500 nM | 545 | 334 nM | 73 | 4.6 nM | CCOCCOCc1cccc(Cn2nnc3c(-c4ccc(C)o4)nc(N)nc32)n1 [Example 32] | 1 mg/kg
 |  | 939 nM | 208 | 422 nM | 93 | 4.5 nM | COC(C)(C)OCc1cccc(Cn2nnc3c(-c4ccc(C)o4)nc(N)nc32)n1 [Example 36, 7-(5-methylfuran-2-yl)-3-(6-[1-methoxy-1-methylethyl]oxymethylpyrid-2-ylmethyl)-3H-[1,2,3]triazolo[4,5-d]pyrimidin-5-amine] | 1 to 3 mg/kg
2380 nM | 536 | 2490 nM | 560 | 231 nM | 52 | 4.4 nM | Cc1ccc(-c2nc(N)nc3c2nnn3Cc2cccc(COCC(F)(F)F)n2)o1 [Example 37, 7-(5-methylfuran-2-yl)-3-(6-[2,2,2-trifluoroethyl]oxymethylpyrid-2-ylmethyl)-3H-[1,2,3]triazolo[4,5-d]pyrimidin-5-amine] | 1 mg/kg

Second part, the compound before the results:

SMILES | Ki (hA2B receptors) | Binding Selectivity A2b/A2a (hA2B receptors) | Ki [2] | Binding Selectivity A3/A2a [2] | Ki [3] | Binding Selectivity A1/A2a [3] | Ki [4] | In Vivo activity HaloLMA MED [1]
COCc1cccc(Cn2nnc3c(-c4nc(C)cs4)nc(N)nc32)n1 [Example 30, 7-(4-methylthiazol-2-yl)-3-(6-[methoxymethyl]pyrid-2-ylmethyl)-3H-[1,2,3]triazolo[4,5-d]pyrimidin-5-amine] | 2370 nM | 498 | 4600 nM | 965 | 799 nM | 168 | 4.8 nM | 3 mg/kg
Nc1nc(-c2nccs2)c2nnn(Cc3cccc(CO[C@H]4CCOC4)n3)c2n1 [Example 38, S-7-(thiazol-2-yl)-3-(6-[tetrahydrofuran-3-yl]oxymethylpyrid-2-ylmethyl)-3H-[1,2,3]triazolo[4,5-d]pyrimidin-5-amine] | 2980 nM | 105 |  |  | 2090 nM | 73 | 28.4 nM | 10 mg/kg
Cc1csc(-c2nc(N)nc3c2nnn3Cc2cccc(C3(O)CCCC3)n2)n1 [Example 27, 7-(4-methylthiazol-2-yl)-3-(6-[1-hydroxy-1-cyclopentyl]pyrid-2-ylmethyl)-3H-[1,2,3]triazolo[4,5-d]pyrimidin-5-amine] | 5740 nM | 510 | 7520 nM | 668 | 1730 nM | 154 | 11.3 nM | 10 mg/kg
Cc1ccc(-c2nc(N)nc3c2nnn3Cc2cccc(C3(O)CCCCC3)n2)o1 [Example 4, 7-(5-methylfuran-2-yl)-3-(6-[1-hydroxy-1-cyclohexyl]pyrid-2-ylmethyl)-3H-[1,2,3]triazolo[4,5-d]pyrimidin-5-amine] | 1130 nM | 366 | 1640 nM | 528 | 196 nM | 63 | 3.1 nM | 3 mg/kg
Nc1nc(-c2ccccc2)c2nnn(Cc3cccc(C4(O)CCCC4)n3)c2n1 [Example 9, 7-phenyl-3-(6-[1-hydroxy-1-cyclopentyl]pyrid-2-ylmethyl)-3H-[1,2,3]triazolo[4,5-d]pyrimidin-5-amine] | 3410 nM | 347 |  |  | 706 nM | 72 | 9.8 nM | 10 mg/kg
COCc1cccc(Cn2nnc3c(-c4cccc(OC)c4)nc(N)nc32)n1 [Example 18, 7-(3-methoxyphenyl)-3-(6-[methoxymethyl]pyrid-2-ylmethyl)-3H-[1,2,3]triazolo[4,5-d]pyrimidin-5-amine] |  |  |  |  |  |  |  | <30 mg/kg
COCc1cccc(Cn2nnc3c(-c4cccc(C#N)c4)nc(N)nc32)n1 [Example 24, 7-(3-cyanophenyl)-3-(6-[methoxymethyl]pyrid-2-ylmethyl)-3H-[1,2,3]triazolo[4,5-d]pyrimidin-5-amine] |  |  |  |  |  |  |  | 10 mg/kg
Cc1csc(-c2nc(N)nc3c2nnn3Cc2cccc(CO[C@H]3CCOC3)n2)n1 [Example 25, S-7-(4-methylthiazol-2-yl)-3-(6-[tetrahydrofuran-3-yl]oxymethylpyrid-2-ylmethyl)-3H-[1,2,3]triazolo[4,5-d]pyrimidin-5-amine] |  |  |  |  |  |  |  | 3 mg/kg
